The record followed here is ChEMBL document CHEMBL1201862, “PubChem BioAssay data set” (2004).

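How tested: cells in 96-well plates exposed to compound for 48 hours at five concentrations. Here, GI50 denotes the concentration required for 50% inhibition of growth.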 Active and inactive are the calls of the source. No stated cut-off is given here; in the data, active = GI50 up to about 1.1 µM and inactive = higher.

Some test systems named below: HL-60; MDA-MB-231; KM12; NCI-H522; BT-549; NCI/ADR-RES; MOLT-4; SK-MEL-2; CAKI-1; SW-620; LOX IMVI; UO-31; OVCAR-8; SN12C; COLO 205; MDA-N; HOP-92; SNB-19; U-251; CCRF-CEM.
Assay in all cases: inhibition of tumour cell growth, NCI panel, 48 h

For `C[C@]12CC[C@H]3[C@@H](CCC4=C[C@@H](OC5OCC(OC6OC(CO)C(O)C(O)C6O)C(O)C5O)CC[C@@]43C=O)[C@@]1(O)CCC2C1=CC(=O)OC1` (stereo not given in full), the GI50 in the assay on HL-60 was 0.244 µM (active); in the assay with MDA-MB-231 it was 3.02 µM (inactive); in the assay on KM12 it was 2.71 µM (inactive); with NCI-H522 it was 0.203 µM (active); with BT-549, 0.211 µM (active); in the assay with NCI/ADR-RES it was 0.469 µM (active). The GI50 in the assay on MOLT-4 was 0.0986 µM (active); in the assay with SK-MEL-2, 1.62 µM (inactive); in the assay with CAKI-1, 0.347 µM (active); in the assay on SW-620, 0.746 µM (active); in the assay with LOX IMVI, 0.63 µM (active); in the assay with UO-31, 0.561 µM (active). Further, the GI50 in the assay on OVCAR-8 was 0.931 µM (active); with SN12C, 0.364 µM (active); with COLO 205, 1.35 µM (inactive); in the assay on MDA-N it was 1.01 µM (active); in the assay on HOP-92, 1.11 µM (active); in the assay with SNB-19 it was 3.11 µM (inactive). Further, the GI50 in the assay with U-251 is 0.849 µM (active); with CCRF-CEM, 0.244 µM (active).

Consider `NC(=O)c1cc2ccc(O)cc2o/c1=N/NC(=O)c1ccccc1`, for which the GI50 was 61 µM (inactive) with HL-60; 80.5 µM (inactive) with MDA-MB-231; 77.1 µM (inactive) in the assay with KM12; 42.3 µM (inactive) in the assay with NCI-H522; 52.2 µM (inactive) in the assay on BT-549; > 100 µM (inactive) in the assay with NCI/ADR-RES. In addition, the GI50 in the assay on MOLT-4 was 35.1 µM (inactive); in the assay with SK-MEL-2, 28.2 µM (inactive); in the assay on CAKI-1, 36.6 µM (inactive); in the assay with SW-620, 64.3 µM (inactive); in the assay on LOX IMVI it was 47.8 µM (inactive); in the assay on UO-31, 67 µM (inactive). The GI50 in the assay on OVCAR-8 is 67.8 µM (inactive); in the assay on SN12C, 63.7 µM (inactive); with COLO 205, > 100 µM (inactive); with MDA-N it was 72.8 µM (inactive); in the assay with HOP-92, > 100 µM (inactive); in the assay on SNB-19 it was > 100 µM (inactive). Also, the GI50 in the assay on U-251 is > 100 µM (inactive); with CCRF-CEM it was 48.6 µM (inactive).

Regarding `O=C(Sc1c(-c2ccccc2)c(=O)n(-c2ccccc2)c(=S)n1-c1ccccc1)c1ccco1`, the GI50 was 21.5 µM (inactive) in the assay on HL-60; > 100 µM (inactive) in the assay with MDA-MB-231; > 100 µM (inactive) in the assay with KM12; > 76.9 µM (inactive) in the assay on NCI-H522; > 100 µM (inactive) with BT-549; > 100 µM (inactive) in the assay with NCI/ADR-RES. For the same compound, the GI50 with MOLT-4 was 27.5 µM (inactive); in the assay with SK-MEL-2, > 100 µM (inactive); with CAKI-1 it was > 100 µM (inactive); in the assay with SW-620, > 57.5 µM (inactive); in the assay with LOX IMVI it was > 100 µM (inactive); in the assay on UO-31 it was > 100 µM (inactive). In addition, the GI50 with OVCAR-8 was > 100 µM (inactive); with SN12C, > 100 µM (inactive); in the assay with COLO 205, > 100 µM (inactive); with MDA-N it was > 90.6 µM (inactive); with HOP-92 it was > 52.2 µM (inactive); in the assay on SNB-19, > 100 µM (inactive). In addition, the GI50 in the assay on U-251 is > 100 µM (inactive); with CCRF-CEM, 18.7 µM (inactive).

With `COc1cc(N(C)C)c(OC)cc1/C=C\c1ccnc2ccccc12`, the GI50 is 3.7 µM (inactive) in the assay on HL-60; 2.8 µM (inactive) with MDA-MB-231; 0.46 µM (active) in the assay with KM12; 4.38 µM (inactive) in the assay with NCI-H522; 4.34 µM (inactive) in the assay on BT-549; 2.56 µM (inactive) in the assay on NCI/ADR-RES. The GI50 in the assay with MOLT-4 is 3.4 µM (inactive); in the assay on SK-MEL-2, 2.66 µM (inactive); in the assay with CAKI-1, 6.38 µM (inactive); in the assay on SW-620, 4.68 µM (inactive); in the assay with LOX IMVI, 0.746 µM (active); in the assay with UO-31, > 10 µM (inactive). Further, the GI50 with OVCAR-8 is 9.44 µM (inactive); in the assay on SN12C it was 6.32 µM (inactive); in the assay on COLO 205 it was 3.55 µM (inactive); with MDA-N it was 1.71 µM (inactive); in the assay on HOP-92 it was 2.74 µM (inactive); with SNB-19, > 10 µM (inactive). Besides, the values for the GI50 in the assay on U-251 and in the assay with CCRF-CEM were 5.04 µM (inactive) and 3.56 µM (inactive), respectively.

With `Cn1c(-c2ccc[se]2)ccc1-c1ccc(C=O)[se]1`, the GI50 was 9.31 µM (inactive) with HL-60; 35.9 µM (inactive) in the assay with MDA-MB-231; > 100 µM (inactive) in the assay on KM12; 16.4 µM (inactive) in the assay with NCI-H522; 17.1 µM (inactive) with BT-549; 2.16 µM (inactive) with NCI/ADR-RES. In addition, the GI50 in the assay on MOLT-4 was 7.43 µM (inactive); with SK-MEL-2, 65.3 µM (inactive); in the assay on CAKI-1, 0.195 µM (active); in the assay on SW-620, 1.3 µM (inactive); in the assay with LOX IMVI, 8.99 µM (inactive); in the assay with UO-31, > 76.4 µM (inactive). Besides, the GI50 in the assay on OVCAR-8 is 6.98 µM (inactive); in the assay with SN12C it was 14.9 µM (inactive); in the assay on COLO 205, 16.3 µM (inactive); with MDA-N it was 6.34 µM (inactive); in the assay on HOP-92, 10.5 µM (inactive); in the assay on SNB-19 it was > 100 µM (inactive). The GI50 with U-251 is 0.0811 µM (active); with CCRF-CEM, 0.859 µM (active).

`O=C1NC(c2ccccc2)C1N(Cc1ccccc1)Cc1ccccc1` (stereo not given): the GI50 with HL-60 was > 100 µM (inactive); in the assay with MDA-MB-231, 74.1 µM (inactive); in the assay on KM12, > 100 µM (inactive); in the assay with NCI-H522, > 100 µM (inactive); in the assay with BT-549 it was > 100 µM (inactive); with NCI/ADR-RES, > 100 µM (inactive). Besides, the GI50 with MOLT-4, in the assay on SK-MEL-2, with CAKI-1, in the assay on SW-620, with LOX IMVI and in the assay on UO-31 was > 100 µM (inactive) throughout. For the same compound, the GI50 in the assay with OVCAR-8, in the assay with SN12C, with COLO 205, in the assay with MDA-N, in the assay on HOP-92 and in the assay on SNB-19 was > 100 µM (inactive) each time. In addition, the GI50 in the assay on U-251 and with CCRF-CEM was > 100 µM (inactive) each time.

Regarding `O=[N+]([O-])C(=C(\Cl)NCCO)/C(Cl)=C(/Cl)Br`, the GI50 in the assay with HL-60 is 0.791 µM (active); in the assay on MDA-MB-231, 1.74 µM (inactive); with KM12, 5.57 µM (inactive); in the assay with NCI-H522, 1.1 µM (active); with BT-549 it was 1.77 µM (inactive); in the assay with NCI/ADR-RES, 2.34 µM (inactive). The GI50 with MOLT-4 was 0.481 µM (active); in the assay on SK-MEL-2, 1.03 µM (active); in the assay on CAKI-1, 0.558 µM (active); in the assay with SW-620 it was 1.17 µM (inactive); in the assay with LOX IMVI, 0.885 µM (active); with UO-31, 2.79 µM (inactive). In addition, the GI50 with OVCAR-8 is 1.87 µM (inactive); in the assay on SN12C it was 1.98 µM (inactive); in the assay on COLO 205, 1.38 µM (inactive); with MDA-N, 1.83 µM (inactive); with HOP-92, 1.56 µM (inactive); with SNB-19, 6.7 µM (inactive). In addition, the GI50 is 2.04 µM (inactive) in the assay on U-251 and 0.323 µM (active) with CCRF-CEM.

For the compound `Cc1cc(=O)oc2cc(OC(=O)Nc3ccccc3)ccc12`, the GI50 was 20.6 µM (inactive) in the assay on HL-60; > 100 µM (inactive) in the assay on MDA-MB-231; 32.4 µM (inactive) with KM12; 53.1 µM (inactive) in the assay on NCI-H522; 22.9 µM (inactive) in the assay on BT-549; 63.2 µM (inactive) in the assay on NCI/ADR-RES. For the same compound, the GI50 is 40.8 µM (inactive) in the assay with MOLT-4; > 100 µM (inactive) in the assay with SK-MEL-2; > 100 µM (inactive) in the assay with CAKI-1; 62.8 µM (inactive) in the assay on SW-620; > 100 µM (inactive) in the assay on LOX IMVI; 40.4 µM (inactive) in the assay on UO-31. The GI50 is 53.3 µM (inactive) with OVCAR-8; 74.6 µM (inactive) in the assay with SN12C; 53.5 µM (inactive) in the assay on COLO 205; > 100 µM (inactive) in the assay with MDA-N; 29.3 µM (inactive) with HOP-92; > 100 µM (inactive) in the assay on SNB-19. Moreover, the GI50 is 86.3 µM (inactive) with U-251 and 27.2 µM (inactive) with CCRF-CEM.

`C/C(=N/CC(=O)O)c1ccccc1`: the GI50 in the assay on HL-60 is 35.9 µM (inactive); in the assay on MDA-MB-231 it was > 100 µM (inactive); in the assay with KM12, > 100 µM (inactive); in the assay on NCI-H522, 34.8 µM (inactive); in the assay with BT-549, 61 µM (inactive); in the assay on NCI/ADR-RES it was > 100 µM (inactive). Also, the GI50 in the assay on MOLT-4 is 70.5 µM (inactive); with SK-MEL-2, > 100 µM (inactive); in the assay with CAKI-1, > 100 µM (inactive); in the assay with SW-620, > 100 µM (inactive); in the assay on LOX IMVI, > 100 µM (inactive); in the assay on UO-31 it was 97.5 µM (inactive). For the same compound, the GI50 in the assay with OVCAR-8, in the assay on SN12C, in the assay with COLO 205, in the assay with MDA-N, in the assay with HOP-92 and in the assay with SNB-19 was > 100 µM (inactive) each time. The GI50 in the assay on U-251 was > 100 µM (inactive); with CCRF-CEM it was 27.8 µM (inactive).

In the case of `C[C@H](CCC(=O)O)[C@H]1CC[C@H]2[C@@H]3[C@H](O)C[C@@H]4C[C@H](O)CC[C@]4(C)[C@H]3C[C@H](O)[C@]12C`, the GI50 in the assay with HL-60, in the assay on MDA-MB-231, with KM12, with NCI-H522, in the assay with BT-549 and with NCI/ADR-RES was > 100 µM (inactive) in each case. Also, the GI50 in the assay on MOLT-4, in the assay with SK-MEL-2, in the assay with CAKI-1, with SW-620, in the assay with LOX IMVI and in the assay on UO-31 was > 100 µM (inactive) in each case. The GI50 in the assay with OVCAR-8, in the assay on SN12C, in the assay on COLO 205, in the assay on MDA-N, in the assay with HOP-92 and with SNB-19 was > 100 µM (inactive) each time. Also, the GI50 in the assay with U-251 and in the assay on CCRF-CEM was > 100 µM (inactive) each time.
